Where a name gives a salt, the structure may show the parent alone.

The subject of one test is LDL receptor. Kind of test: Effects on an activity of a LDL receptor: uptake amount of DiI-LDL into HepG2 cell. It counts as cell-based, human. Conditions: 1 μM, control group as 100%. The method, then:
The 1,1′-dioctadecyl-3,3,3′,3′-tetramethylindocarbocyanine perchlorate (DiI)-labeled LDL (DiI-LDL) was prepared as follows. That is, a DiI (Invitrogen Corp., U.S.A) was mixed with a human LDL (Chemicon International, Inc., U.S.A) and the mixture was incubated at 37° C. for 8 hours. […] After centrifugation, the DiI-labeled LDL fraction was separated and dialyzed with a physiological saline to prepare the above desired solution.
The effects on a LDL receptor activity were determined as the uptake amount of DiI-LDL into HepG2 cell. The cultured human hepatic cell line HepG2 cell was purchased from the Dainippon Pharmaceuticals Co. Ltd. (Osaka, Japan). The HepG2 cells were seeded in a 96 well plate and were incubated in the Dulbecco's modified Eagle/F-12 (DMEM/F-12) medium containing 10% fetal bovine serum and antibiotics in a CO2 incubator at 37° C. for two to three days. After washing the cells, a DMEM/F-12 medium containing 5-10% lipoprotein-deficient serum, the test substrate and the antibiotics were added thereto and the cells were incubated at 37° C. for 19 hours. After adding DiI-LDL, the cells were incubated in a CO2 incubator at 37° C. for another 5 hours. The uptake amount of non-specific DiI-LDL was measured by adding 30 to 50 folds amount of the non-labeled LDL. After washing the cells with Dulbecco's phosphate buffer (Sigma Corp., U.S.A.), the Dulbecco's phosphate buffer was added to each well and then the uptake amount of DiI-LDL into the cell line were measured as the value of fluorescence. After measuring the fluorescence, the Dulbecco's phosphate buffer was removed and thereto was added 1N sodium hydroxide solution to dissolve the cells and the amount of protein was measured by using a part of the resulting solution. The effect on a LDL receptor activity by each compound was determined by calculating the ratio of the amount of fluorescence/the amount of protein, and by subtracting the non-specific uptake amount therefrom and then calculating the control group as 100%.
`CNS(=O)(=O)NC[C@]1(c2cccc(OC)c2)CC[C@H](NCc2ccc(-c3ccccc3)cc2)CC1.Cl` [Example 49, N-{[cis-4-[(biphenyl-4-ylmethyl)amino]-1-(3-methoxyphenyl)cyclohexyl]methyl}-N′-methylsulfamide hydrochloride]: the “Activity of (%) LDL receptor” value came out at 208%. Same read-out and setting: then `COc1cccc([C@]2(CNS(=O)(=O)N(C)C(=O)OC(C)(C)C)CC[C@@H](NCc3ccc(-c4ccccc4)cc3)CC2)c1` [Example 48, tert-butyl [({[cis-4-[(biphenyl-4-ylmethyl)amino]-1-(3-methoxyphenyl)cyclohexyl]methyl}amino)sulfonyl]methylcarbamate], with 145%; and `COc1cccc([C@]2(CNS(N)(=O)=O)CC[C@@H](NC(C)c3ccccc3)CC2)c1` (stereo partly drawn) [Example 20, N-({cis-1-(3-methoxyphenyl)-4-[(1-phenylethyl)amino]-cyclohexyl}methyl)sulfamide], with 128%.

On to `COc1cccc([C@]2(CNS(N)(=O)=O)CC[C@@H](NCc3ccc(-c4ccccc4)cc3)CC2)c1.Cl` [Example 42, N-{[cis-4-[(biphenyl-4-ylmethyl)amino]-1-(3-methoxyphenyl)cyclohexyl]methyl}sulfamide hydrochloride], for which the “Activity of (%) LDL receptor” value is recorded as 188%.

The same test, now with this note: 3 μM, control group as 100%.
For `COc1cccc([C@]2(CNS(N)(=O)=O)CC[C@H](NCc3ccc(-c4ccccc4)cc3)CC2)c1` [Example 43, N-{[trans-4-[(biphenyl-4-ylmethyl)amino]-1-(3-methoxyphenyl)cyclohexyl]methyl}sulfamide hydrochloride], the “Activity of (%) LDL receptor” value is reported as 146%. In the case of `COc1cccc([C@]2(CNS(=O)(=O)c3ccc(C)cc3)CC[C@@H](NCc3ccc(-c4ccccc4)cc3)CC2)c1` [Example 25, N-{[cis-4-[(biphenyl-4-ylmethyl)amino]-1-(3-methoxyphenyl)cyclohexyl]methyl}-4-methylbenzenesulfonamide], the “Activity of (%) LDL receptor” value was found to be 153%. On the same count and under the same terms, next, `COc1cccc(C2(C(=O)NS(=O)(=O)Oc3c(C(C)C)cccc3C(C)C)CC3CCCC(C2)N3c2ccccc2OC)c1.Cl` (stereo not shown) [Example 57, 2,6-diisopropylphenyl {[9-(2-methoxyphenyl)-3-(3-methoxyphenyl)-9-azabicyclo[3.3.1]nonan-3-yl]carbonyl}sulfamate hydrochloride]: 124%.

The test is the same for the next values; noted with them: 10 μM, control group as 100%.
`COc1cccc([C@]2(CNS(N)(=O)=O)CC[C@@H](NCc3ccc(-n4ccnc4)cc3)CC2)c1` [Example 18-2, N-{[cis-4-{[4-(1H-imidazol-1-yl)benzyl]amino}-1-(3-methoxyphenyl)cyclohexyl]methyl}sulfamide]: the “Activity of (%) LDL receptor” value is listed as 161%. With `COc1cccc(C2(CNS(C)(=O)=O)CCN(c3ccccc3OC)CC2)c1` [Example 27-1, N-{[1-(2-methoxyphenyl)-4-(3-methoxyphenyl)piperidin-4-yl]methyl}methanesulfonamide], the “Activity of (%) LDL receptor” value is 108%.

Consider `COc1cccc([C@]2(CNS(C)(=O)=O)CC[C@@H](NC3CCNCC3)CC2)c1` [Example 10-3, N-{[cis-1-(3-methoxyphenyl)-4-(piperidin-4-ylamino)-cyclohexyl]methyl}methanesulfonamide dihydrochloride], for which the “Activity of (%) LDL receptor” value was 162%.

`COc1cccc([C@]2(CNS(N)(=O)=O)CC[C@@H](NC3CCN(Cc4ccccc4)CC3)CC2)c1` [Example 18-1, N-{[cis-4-[(1-benzylpiperidin-4-yl)amino]-1-(3-methoxyphenyl)cyclohexyl]methyl}sulfamide]: the “Activity of (%) LDL receptor” value worked out at 230%.

For `COc1cccc(C2(NS(=O)(=O)NC(=O)c3ccc(Cl)cc3)CCN(c3ncccn3)CC2)c1` [Example 34, 4-chloro-N-({[4-(3-methoxyphenyl)-1-pyrimidin-2-yl-piperidin-4-yl]amino}sulfonyl)benzamide], the “Activity of (%) LDL receptor” value came out at 139%.

As for `COc1cccc(C2(C(=O)NS(=O)(=O)Oc3c(C(C)C)cccc3C(C)C)CCC(Nc3ccccc3OC)CC2)c1` (stereo not shown) [Example 3-2, 2,6-diisopropylphenyl ({1-(3-methoxyphenyl)-4-[(2-methoxyphenyl)amino]cyclohexyl}carbonyl)sulfamate], the “Activity of (%) LDL receptor” value was 154%. The same measure, in the same setting: next, `COc1cccc(C2(C(=O)NS(=O)(=O)Oc3ccccc3C(C)(C)C)CCN(c3ccccc3OC)CC2)c1` [Example 1-8, 2-tert-butylphenyl {[1-(2-methoxyphenyl)-4-(3-methoxyphenyl)piperidin-4-yl]carbonyl}sulfamate]: 134%. Turning to `COc1cccc(C2(C(=O)NS(=O)(=O)NC(C)c3ccccc3)CCN(c3ncccn3)CC2)c1` (stereo not shown) [Example 28-6, 4-(3-methoxyphenyl)-N-{[(1-phenylethyl)amino]sulfonyl}-1-pyrimidin-2-ylpiperidine-4-carboxamide], the “Activity of (%) LDL receptor” value is 127%. Regarding `COc1cccc(C2(C(=O)NS(=O)(=O)Oc3c(C(C)C)cccc3C(C)C)CCN(c3ncccn3)CC2)c1` [Example 1-17, 2,6-diisopropylphenyl {[4-(3-methoxyphenyl)-1-pyrimidin-2-ylpiperidin-4-yl]carbonyl}sulfamate], the “Activity of (%) LDL receptor” value came to 120%. On to `COc1cccc([C@]2(CNS(N)(=O)=O)CC[C@@H](NCc3ccc(-n4cncn4)cc3)CC2)c1` [Example 18-3, N-[(cis-1-(3-methoxyphenyl)-4-{[4-(1H-1,2,4-triazol-1-yl)-benzyl]amino}cyclohexyl)methyl]sulfamide], for which the “Activity of (%) LDL receptor” value was found to be 154%. Consider `COc1cccc([C@]2(CNS(C)(=O)=O)CC[C@@H](NC3CCN(Cc4ccc(S(C)(=O)=O)cc4)CC3)CC2)c1` [Example 15-2, N-[(cis-1-(3-methoxyphenyl)-4-{1-[4-(methylsulfonyl)-benzyl]piperidin-4-ylamino}cyclohexyl)methyl]methanesulfonamide], for which the “Activity of (%) LDL receptor” value is listed as 223%. For the compound `COc1cccc(C2(C(=O)NS(=O)(=O)Oc3c(C(C)C)cccc3C(C)C)CCN(c3nc4ccccc4s3)CC2)c1` [Example 1-19, 2,6-diisopropylphenyl {[1-(1,3-benzothiazol-2-yl)-4-(3-methoxyphenyl)piperidin-4-yl]carbonyl}sulfamate], the “Activity of (%) LDL receptor” value is on record as 132%. Same read-out and setting: next, `COc1cccc([C@]2(CNS(N)(=O)=O)CC[C@H](NC3CCN(Cc4ccccc4)CC3)CC2)c1` [Example 55, N-{[trans-4-[(1-benzylpiperidin-4-yl)amino]-1-(3-methoxyphenyl)cyclohexyl]methyl}sulfamide dihydrochloride]: 140%; `COc1cccc([C@]2(CNS(=O)(=O)NC(=O)OC(C)(C)C)CC[C@@H](NCc3ccc(-c4ccccc4)cc3)CC2)c1` [Example 41, tert-butyl [({[cis-4-[(biphenyl-4-ylmethyl)amino]-1-(3-methoxyphenyl)cyclohexyl]methyl}amino)sulfonyl]carbamate]: 173%; `COc1cccc([C@]2(CNS(N)(=O)=O)CC[C@@H](NCc3ccc(S(N)(=O)=O)cc3)CC2)c1.Cl` [Example 38, 4-({[cis-4-{[(aminosulfonyl)amino]methyl}-4-(3-methoxyphenyl)cyclohexyl]amino}methyl)benzenesulfonamide hydrochloride]: 150%.

Values taken from US20080096922A1, “Novel Sulfonamide derivative” (Dainippon Sumitomo Pharma Co., Ltd., priority 2004, published 2008).
